In patent US9669034B2, “4-aryl-N-phenyl-1,3,5-triazin-2-amines containing a sulfoximine group” (BAYER INTELLECTUAL PROPERTY GMBH, priority 2011, dated 2017) one finds IC50 data, which are given here for ten compounds.

The subject of assay [1] is HeLa human cervical tumour cells. The assay is described as follows: Proliferation assay (crystal violet), HeLa. As to conditions: Homo sapiens, HeLa, Method 3, read-out: Inhibition of HeLa cell proliferation, IC50. Format: cell-based. How it is done:
Cultivated tumour cells (NCI-H460, human non-small cell lung carcinoma cells, ATCC HTB-177; DU145, hormone-independent human prostate carcinoma cells, ATCC HTB-81; HeLa-MaTu, human cervical carcinoma cells, EPO-GmbH, Berlin; HeLa-MaTu-ADR, multidrug-resistant human cervical carcinoma cells, EPO-GmbH, Berlin; HeLa human cervical tumour cells, ATCC CCL-2; Caco-2 human colorectal carcinoma, ATCC HTB-37; B16F10 mouse melanoma cells, ATCC CRL-6475) were plated at a density of 5000 cells/well (DU145, HeLa-MaTu-ADR), 3000 cells/well (NCI-H460, HeLa-MaTu, HeLa), 1500 cells/well (Caco-2), or 1000 cells/well (B16 F10) in a 96-well multititer plate in 200 μL of their respective growth medium supplemented 10% fetal calf serum. After 24 hours, the cells of one plate (zero-point plate) were stained with crystal violet (see below), while the medium of the other plates was replaced by fresh culture medium (200 μL), to which the test substances were added in various concentrations (0 M, as well as in the range of […]; the final concentration of the solvent dimethylsulfoxide was 0.5%). The cells were incubated for 4 days in the presence of test substances. Cell proliferation was determined by staining the cells with crystal violet: the cells were fixed by adding 20 μL/measuring point of an 11% glutaric aldehyde solution for 15 minutes at room temperature. After three washing cycles of the fixed cells with water, the plates were dried at room temperature. The cells were stained by adding 100 μL/measuring point of a 0.1% crystal violet solution (pH 3.0). After three washing cycles of the stained cells with water, the plates were dried at room temperature. The dye was dissolved by adding 100 μL/measuring point of a 10% acetic acid solution. The absorbance was determined by photometry at a wavelength of 595 nm. The change of cell number, in percent, was calculated by normalization of the measured values to the absorbance values of the zero-point plate (=0%) and the absorbance of the untreated (0 M) cells (=100%). The IC50 values were determined by means of a 4 parameter fit.

A further assay has as its target CDK2/CycE (Homo sapiens (Human), UniProt P24941). The assay is described as follows: CDK2/CycE kinase assay (TR-FRET). The assay is classed as biochemical. Conditions: Method 2. The text has this:
2. CDK2/CycE Kinase Assay:
CDK2/CycE—inhibitory activity of compounds of the present invention was quantified employing the CDK2/CycE TR-FRET assay as described in the following paragraphs:
Recombinant fusion proteins of GST and human CDK2 and of GST and human CycE, expressed in insect cells (Sf9) and purified by Glutathion-Sepharose affinity chromatography, were purchased from ProQinase GmbH (Freiburg, Germany). As substrate for the kinase reaction biotinylated peptide biotin-Ttds-[…]

The next assay addresses CDK9/CycT1 (Homo sapiens (Human), UniProt P50750). The assay is described as follows: CDK9/CycT1 kinase assay (TR-FRET). Format: biochemical. As to conditions: Method 1. The text has this: 1. CDK9/CycT1 Kinase Assay:
CDK9/CycT1—inhibitory activity of compounds of the present invention was quantified employing the CDK9/CycT1 TR-FRET assay as described in the following paragraphs:
Recombinant full-length His-tagged human CDK9 and CycT1, expressed in insect cells and purified by Ni-NTA affinity chromatography, were purchased from Invitrogen (Cat. No PV4131). As substrate for the kinase reaction biotinylated peptide biotin-Ttds-[…]
On the technique in general: TR-FRET usually uses a lanthanide donor and a delayed reading to cut background.

Where [2] appears, read: unit cell empty (table: nM or μM).

Sequence of CDK9/CycT1 (P50750 whole entry): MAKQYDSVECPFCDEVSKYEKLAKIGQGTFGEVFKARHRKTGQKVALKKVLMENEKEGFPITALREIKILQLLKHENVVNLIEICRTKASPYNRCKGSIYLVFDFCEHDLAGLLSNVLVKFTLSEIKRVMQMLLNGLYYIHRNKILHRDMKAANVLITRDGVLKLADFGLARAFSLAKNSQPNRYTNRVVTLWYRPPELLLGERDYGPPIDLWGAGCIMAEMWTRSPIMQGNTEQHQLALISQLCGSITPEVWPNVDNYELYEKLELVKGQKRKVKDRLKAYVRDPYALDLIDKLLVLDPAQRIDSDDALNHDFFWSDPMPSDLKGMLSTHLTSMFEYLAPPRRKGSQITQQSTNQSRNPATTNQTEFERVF
Sequence of CDK9/CycT1 (O60563 whole entry partner): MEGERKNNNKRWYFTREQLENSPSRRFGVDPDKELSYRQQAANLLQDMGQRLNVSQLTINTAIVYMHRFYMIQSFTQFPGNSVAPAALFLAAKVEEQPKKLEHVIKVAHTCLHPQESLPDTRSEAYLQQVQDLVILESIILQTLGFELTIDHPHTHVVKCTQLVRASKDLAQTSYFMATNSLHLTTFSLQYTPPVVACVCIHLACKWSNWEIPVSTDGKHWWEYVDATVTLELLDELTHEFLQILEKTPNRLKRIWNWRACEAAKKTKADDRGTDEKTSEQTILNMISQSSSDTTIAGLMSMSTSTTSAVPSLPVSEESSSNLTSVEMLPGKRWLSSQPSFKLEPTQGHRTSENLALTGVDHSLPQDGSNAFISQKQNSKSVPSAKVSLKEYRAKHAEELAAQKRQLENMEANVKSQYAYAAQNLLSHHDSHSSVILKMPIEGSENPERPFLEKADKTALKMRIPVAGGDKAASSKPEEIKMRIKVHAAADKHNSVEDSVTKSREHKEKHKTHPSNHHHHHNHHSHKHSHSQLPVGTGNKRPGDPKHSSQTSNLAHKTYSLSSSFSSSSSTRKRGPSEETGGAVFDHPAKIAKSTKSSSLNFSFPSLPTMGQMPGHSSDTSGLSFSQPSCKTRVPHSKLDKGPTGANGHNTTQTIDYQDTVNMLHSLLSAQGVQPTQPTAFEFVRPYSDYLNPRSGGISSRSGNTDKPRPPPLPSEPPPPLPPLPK

On to `CCOC(=O)N=S(C)(=O)Cc1cccc(Nc2ncnc(-c3ccccc3OC)n2)c1` (racemic) [Example 25, (rac)-Ethyl [(3-{[4-(2-methoxyphenyl)-1,3,5-triazin-2-yl]amino}benzyl)(methyl)oxido-λ^6-sulfanylidene]carbamate], for which the results for the IC50 (in assay [1]; against CDK2/CycE; against CDK9/CycT1) were 1100 nM, 6300 nM and 28 nM, respectively.
For the compound `CS(=N)(=O)Cc1cccc(Nc2ncnc(-c3cccc4c3OCCC4)n2)c1` (racemic) [Example 30, (rac)-4-(3,4-Dihydro-2H-chromen-8-yl)-N-{3-[(S-methylsulfonimidoyl)methyl]phenyl}-1,3,5-triazin-2-amine], the IC50 in assay [1] was found to be 1200 nM; at CDK2/CycE it was 940 nM.
`COc1cc(F)ccc1-c1ncnc(Nc2cccc(CS(C)(=O)=NS(C)(=O)=O)c2)n1` (racemic) [Example 44, (rac)-N-[(3-{[4-(4-Fluoro-2-methoxyphenyl)-1,3,5-triazin-2-yl]amino}benzyl)(methyl)oxido-λ^6-sulfanylidene]methanesulfonamide]: the IC50 stood at 1000 nM in assay [1], 1800 nM at CDK2/CycE and 20 nM against CDK9/CycT1.
The corresponding values for `COc1cc(F)ccc1-c1ncnc(Nc2ccc(Cl)c(CS(C)(=N)=O)c2)n1` (racemic) [Example 59, (rac)-N-{4-Chloro-3-[(S-methylsulfonimidoyl)methyl]phenyl}-4-(4-fluoro-2-methoxyphenyl)-1,3,5-triazin-2-amine] are 860 nM, 1400 nM and 26 nM.
The corresponding values for `CS(=N)(=O)Cc1cccc(Nc2ncnc(-c3ccc(F)cc3OCc3cccnc3)n2)c1` (racemic) [Example 66, (rac)-4-[4-Fluoro-2-(pyridin-3-ylmethoxy)phenyl]-N-{3-[(S-methylsulfonimidoyl)methyl]phenyl}-1,3,5-triazin-2-amine] are 1700 nM, 1600 nM and 24 nM.
Consider `CS(=N)(=O)Cc1cccc(Nc2ncnc(-c3cccc4c3OCC4)n2)c1` (single isomer, unassigned) [Example 35, 4-(2,3-Dihydro-1-benzofuran-7-yl)-N-{3-[(S-methylsulfonimidoyl)methyl]phenyl}-1,3,5-triazin-2-amine], for which the IC50 against CDK2/CycE worked out at 3100 nM; against CDK9/CycT1, 64 nM.
The corresponding values for `CS(=N)(=O)Cc1cccc(Nc2ncnc(-c3cccc4c3OCC4)n2)c1` (single isomer, unassigned) [Example 36, 4-(2,3-Dihydro-1-benzofuran-7-yl)-N-{3-[(S-methylsulfonimidoyl)methyl]phenyl}-1,3,5-triazin-2-amine] are 2900 nM and 50 nM.
Regarding `CCS(=N)(=O)Cc1cccc(Nc2ncnc(-c3ccc(F)cc3OC)n2)c1` (single isomer, unassigned) [Example 109, N-{3-[(S-ethylsulfonimidoyl)methyl]phenyl}-4-(4-fluoro-2-methoxyphenyl)-1,3,5-triazin-2-amine], the IC50 against CDK2/CycE (setting [2]) is 780 nM; against CDK9/CycT1 (setting [2]), 24 nM.
The corresponding values for `CCS(=N)(=O)Cc1cccc(Nc2ncnc(-c3ccc(F)cc3OC)n2)c1` (single isomer, unassigned) [Example 110, N-{3-[(S-ethylsulfonimidoyl)methyl]phenyl}-4-(4-fluoro-2-methoxyphenyl)-1,3,5-triazin-2-amine] are 1100 nM and 9 nM.
With `CC(Oc1cc(F)ccc1-c1ncnc(Nc2cccc(CS(C)(=N)=O)c2)n1)c1ccc(F)cc1` (stereo not drawn) [Example 69, 4-{4-Fluoro-2-[1-(4-fluorophenyl)ethoxy]phenyl}-N-{3-[(S-methylsulfonimidoyl)methyl]phenyl}-1,3,5-triazin-2-amine], the IC50 on CDK2/CycE came out at 3500 nM; on CDK9/CycT1, 22 nM.
